Results: article PMC10944477 (Communications Biology, 2024)
Converted amounts (≈) assume the structure as drawn.

Columns and labels:
Tet(58) = settings: read-out: KM (apparent); […] NADPH, […] MgCl2, 100 mM TAPS pH 8.5, 0.4 µM enzyme
Tet(56-4) = settings: read-out: KM (apparent); […] NADPH, […] MgCl2, 100 mM TAPS pH 8.5, 0.4 µM enzyme
Tet(56-6) = settings: read-out: KM (apparent); […] NADPH, […] MgCl2, 100 mM TAPS pH 8.5, 0.4 µM enzyme
Tet(56-7) = settings: read-out: KM (apparent)
E. coli + pZE24 TetX7_WT = assay: microbe, parasite or virus in culture; settings: Escherichia coli, 20 h
Procedure: (§1) For high expression from the Plac/ara-1 promoter, 1 mM IPTG fully relieves repression by LacI[93]. Inoculated panels were incubated at 37 °C for 20 h with shaking, then scored by eye and using a plate reader.

E. coli + pZE24 Tet50_WT = assay: microbe, parasite or virus in culture; settings: Escherichia coli, 20 h
Procedure: as §1

Tet(X13.2) = settings: read-out: KM (apparent); […] NADPH, […] MgCl2, 100 mM TAPS pH 8.5, 0.4 µM enzyme
Tet(56-5) = settings: read-out: KM (apparent)
Tet(X7) = type: biochemical, uncultured bacterium; settings: […] NADPH, […] MgCl2, 100 mM TAPS pH 8.5, 0.4 µM enzyme; read-out: KM (apparent)
Tet(56-3) = target: T1, Tet(56-3) (Legionella massiliensis, UniProt A0A078L5T0); assay: biochemical
T1 construct: gene BN59_03621

Tet(56-2) = target: T2, Tet(56-2) (Legionella clemsonensis, UniProt A0A222NYA8); assay: biochemical
T2 construct: gene clem_00015

[1] = test system: C[C@H]1c2cccc(O)c2C(=O)C2=C(O)[C@]3(O)C(=O)C(C(N)=O)=C(O)[C@@H](N(C)C)[C@@H]3[C@@H](O)[C@@H]21; assay: purified protein; settings: pH 8.5

T1 sequence (A0A078L5T0 1-387 limits assumed): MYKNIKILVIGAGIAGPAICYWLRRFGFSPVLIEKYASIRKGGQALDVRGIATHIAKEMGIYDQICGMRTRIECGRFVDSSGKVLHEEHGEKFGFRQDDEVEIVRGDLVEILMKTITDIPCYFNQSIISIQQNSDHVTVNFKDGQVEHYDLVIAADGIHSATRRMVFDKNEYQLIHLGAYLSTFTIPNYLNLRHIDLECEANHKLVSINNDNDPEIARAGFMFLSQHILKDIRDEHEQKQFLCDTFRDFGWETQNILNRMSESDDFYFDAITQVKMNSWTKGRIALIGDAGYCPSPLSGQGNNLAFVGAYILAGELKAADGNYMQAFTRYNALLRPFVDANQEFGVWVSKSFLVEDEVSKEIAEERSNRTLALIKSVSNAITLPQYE
T2 sequence (A0A222NYA8 1-387 limits assumed): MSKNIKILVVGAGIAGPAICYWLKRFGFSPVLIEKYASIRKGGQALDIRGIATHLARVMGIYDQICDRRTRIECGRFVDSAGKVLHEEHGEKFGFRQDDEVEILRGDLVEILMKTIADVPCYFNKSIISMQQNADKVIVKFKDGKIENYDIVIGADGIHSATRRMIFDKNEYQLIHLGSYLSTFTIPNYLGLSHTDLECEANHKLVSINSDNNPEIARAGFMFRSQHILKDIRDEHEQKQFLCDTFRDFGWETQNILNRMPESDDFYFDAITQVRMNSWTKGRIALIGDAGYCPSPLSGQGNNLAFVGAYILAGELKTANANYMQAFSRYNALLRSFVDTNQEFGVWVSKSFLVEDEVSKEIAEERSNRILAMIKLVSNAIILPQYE

## CN(C)[C@@H]1C(=O)C(C(N)=O)=C(O)[C@@]2(O)C(=O)C3=C(O)c4c(O)cccc4[C@@](C)(O)[C@H]3C[C@@H]12 [TET, tetracycline]
Tet(58)
  Km: 0.123 ± 0.067 µM
Tet(56-4)
  Km: 1.18 ± 0.562 µM
Tet(56-6)
  Km: 0.441 ± 0.218 µM
Tet(56-7)
  Km: 2.6 ± 0.301 µM
E. coli + pZE24 TetX7_WT
  MIC: 32 µg/mL (≈ 72 µM)
E. coli + pZE24 Tet50_WT
  MIC: 32 µg/mL (≈ 72 µM)
Tet(X13.2)
  Km: 23.4 ± 9.62 µM
Tet(56-5)
  Km: 0.508 ± 0.181 µM
Tet(X7)
  Km: 2.97 ± 0.68 µM

## Cc1c2c(c(O)c3c(O)cccc13)C(=O)[C@]1(O)C(=O)C(C(N)=O)=C(O)[C@@H](N(C)C)[C@@H]1C2 [ATC, anhydrotetracycline]
Tet(56-3)
  IC50: 30 ± 6 µM
Tet(56-2)
  IC50: 6.4 ± 0.9 µM

## Tet(56-3) (Legionella massiliensis)
[1]
  Km: 14.9 ± 1.4 µM

## Tet(56-2) (Legionella clemsonensis)
[1]
  Km: 150 ± 42 µM

## C[C@H]1c2cccc(O)c2C(=O)C2=C(O)[C@]3(O)C(=O)C(C(N)=O)=C(O)[C@@H](N(C)C)[C@@H]3[C@@H](O)[C@@H]21 [DOX, doxycycline]
E. coli + pZE24 TetX7_WT
  MIC: 16 µg/mL (≈ 36 µM)
E. coli + pZE24 Tet50_WT
  MIC: 2 µg/mL (≈ 4.5 µM)
Tet(X7)
  Km: 5.62 ± 0.629 µM

## CN(C)c1cc(NC(=O)CNC(C)(C)C)c(O)c2c1C[C@H]1C[C@H]3[C@H](N(C)C)C(O)=C(C(N)=O)C(=O)[C@@]3(O)C(O)=C1C2=O [tigecycline]
E. coli + pZE24 TetX7_WT
  MIC: 2 µg/mL (≈ 3.41 µM)
E. coli + pZE24 Tet50_WT
  MIC: 0.5 µg/mL (≈ 0.854 µM)
